ChEMBL document CHEMBL3046669, “Insecticide resistance of the oriental fruit fly, Bactrocera dorsalis (Hendel) (Diptera: Tephritidae), in mainland China” (2011)
Converted amounts (≈) assume the structure as drawn.

Assays:
Format in all cases: functional
Bactrocera dorsalis [1] = experiment: Insecticidal activity against adult Bactrocera dorsalis QY08 assessed as mortality after 24 hr; conditions: QY08, 24 h
Bactrocera dorsalis [2] = experiment: Insecticidal activity against adult Bactrocera dorsalis QY07 assessed as mortality after 24 hr; conditions: QY07, 24 h
Bactrocera dorsalis [3] = experiment: Resistance ratio of LC50 for adult Bactrocera dorsalis CS08 to LC50 for adult Bactrocera dorsalis after 24 hr
Bactrocera dorsalis [4] = experiment: Resistance ratio of LC50 for adult Bactrocera dorsalis C-R-45 to LC50 for adult Bactrocera dorsalis
Bactrocera dorsalis [5] = experiment: Resistance ratio of LC50 for adult Bactrocera dorsalis MM07 to LC50 for adult Bactrocera dorsalis after 24 hr
Bactrocera dorsalis [6] = experiment: Insecticidal activity against adult Bactrocera dorsalis CH07 assessed as mortality after 24 hr; conditions: CH07, 24 h
Bactrocera dorsalis [7] = experiment: Insecticidal activity against adult Bactrocera dorsalis GZ08 assessed as mortality after 24 hr; conditions: GZ08, 24 h
Bactrocera dorsalis [8] = experiment: Resistance ratio of LC50 for adult Bactrocera dorsalis FZ08 to LC50 for adult Bactrocera dorsalis after 24 hr
Bactrocera dorsalis [9] = experiment: Insecticidal activity against adult Bactrocera dorsalis HY08 assessed as mortality after 24 hr; conditions: HY08, 24 h
Bactrocera dorsalis [10] = experiment: Insecticidal activity against adult Bactrocera dorsalis MM08 assessed as mortality after 24 hr; conditions: MM08, 24 h
Bactrocera dorsalis [11] = experiment: Insecticidal activity against adult Bactrocera dorsalis YJ07 assessed as mortality after 24 hr; conditions: YJ07, 24 h
Bactrocera dorsalis [12] = experiment: Resistance ratio of LC50 for adult Bactrocera dorsalis HK07 to LC50 for adult Bactrocera dorsalis after 24 hr
Bactrocera dorsalis [13] = experiment: Resistance ratio of LC50 for adult Bactrocera dorsalis CH07 to LC50 for adult Bactrocera dorsalis after 24 hr
Bactrocera dorsalis [14] = experiment: Insecticidal activity against adult Bactrocera dorsalis HZ07 assessed as mortality after 24 hr; conditions: HZ07, 24 h
Bactrocera dorsalis [15] = experiment: Resistance ratio of LC50 for adult Bactrocera dorsalis QY08 to LC50 for adult Bactrocera dorsalis after 24 hr
Bactrocera dorsalis [16] = experiment: Insecticidal activity against adult Bactrocera dorsalis HY07 assessed as mortality after 24 hr; conditions: HY07, 24 h
Bactrocera dorsalis [17] = experiment: Insecticidal activity against adult Bactrocera dorsalis HK07 assessed as mortality after 24 hr; conditions: HK07, 24 h
Bactrocera dorsalis [18] = experiment: Resistance ratio of LC50 for adult Bactrocera dorsalis HZ07 to LC50 for adult Bactrocera dorsalis after 24 hr
Bactrocera dorsalis [19] = experiment: Resistance ratio of LC50 for adult Bactrocera dorsalis ZJ07 to LC50 for adult Bactrocera dorsalis after 24 hr
Bactrocera dorsalis [20] = experiment: Resistance ratio of LC50 for adult Bactrocera dorsalis GZ07 to LC50 for adult Bactrocera dorsalis after 24 hr
Bactrocera dorsalis [21] = experiment: Insecticidal activity against adult Bactrocera dorsalis ZJ07 assessed as mortality after 24 hr; conditions: ZJ07, 24 h
Bactrocera dorsalis [22] = experiment: Resistance ratio of LC50 for adult Bactrocera dorsalis NN07 to LC50 for adult Bactrocera dorsalis after 24 hr
Bactrocera dorsalis [23] = experiment: Insecticidal activity against adult Bactrocera dorsalis HK08 assessed as mortality after 24 hr; conditions: HK08, 24 h
Bactrocera dorsalis [24] = experiment: Insecticidal activity against adult Bactrocera dorsalis NN07 assessed as mortality after 24 hr; conditions: NN07, 24 h
Bactrocera dorsalis [25] = experiment: Insecticidal activity against adult Bactrocera dorsalis HZ08 assessed as mortality after 24 hr; conditions: HZ08, 24 h
Bactrocera dorsalis [26] = experiment: Resistance ratio of LC50 for adult Bactrocera dorsalis WX08 to LC50 for adult Bactrocera dorsalis after 24 hr
Bactrocera dorsalis [27] = experiment: Resistance ratio of LC50 for adult Bactrocera dorsalis YJ07 to LC50 for adult Bactrocera dorsalis after 24 hr
Bactrocera dorsalis [28] = experiment: Resistance ratio of LC50 for adult Bactrocera dorsalis YJ08 to LC50 for adult Bactrocera dorsalis after 24 hr
Bactrocera dorsalis [29] = experiment: Resistance ratio of LC50 for adult Bactrocera dorsalis GZ08 to LC50 for adult Bactrocera dorsalis after 24 hr
Bactrocera dorsalis [30] = experiment: Insecticidal activity against adult Bactrocera dorsalis C-R-48 assessed as mortality
Bactrocera dorsalis [31] = experiment: Insecticidal activity against adult Bactrocera dorsalis MM07 assessed as mortality after 24 hr; conditions: MM07, 24 h
Bactrocera dorsalis [32] = experiment: Insecticidal activity against adult Bactrocera dorsalis GZ07 assessed as mortality after 24 hr; conditions: GZ07, 24 h
Bactrocera dorsalis [33] = experiment: Insecticidal activity against adult Bactrocera dorsalis CS07 assessed as mortality after 24 hr; conditions: CS07, 24 h
Bactrocera dorsalis [34] = experiment: Insecticidal activity against adult Bactrocera dorsalis WX08 assessed as mortality after 24 hr; conditions: WX08, 24 h
Bactrocera dorsalis [35] = experiment: Insecticidal activity against adult Bactrocera dorsalis assessed as mortality after 24 hr
Bactrocera dorsalis [36] = experiment: Resistance ratio of LC50 for adult Bactrocera dorsalis FZ07 to LC50 for adult Bactrocera dorsalis after 24 hr
Bactrocera dorsalis [37] = experiment: Insecticidal activity against adult Bactrocera dorsalis FZ08 assessed as mortality after 24 hr; conditions: FZ08, 24 h
Bactrocera dorsalis [38] = experiment: Resistance ratio of LC50 for adult Bactrocera dorsalis HY07 to LC50 for adult Bactrocera dorsalis after 24 hr
Bactrocera dorsalis [39] = experiment: Resistance ratio of LC50 for adult Bactrocera dorsalis C-R-48 to LC50 for adult Bactrocera dorsalis
Bactrocera dorsalis [40] = experiment: Resistance ratio of LC50 for adult Bactrocera dorsalis WX07 to LC50 for adult Bactrocera dorsalis after 24 hr
Bactrocera dorsalis [41] = experiment: Insecticidal activity against adult Bactrocera dorsalis YJ08 assessed as mortality after 24 hr; conditions: YJ08, 24 h
Bactrocera dorsalis [42] = experiment: Insecticidal activity against adult Bactrocera dorsalis NN08 assessed as mortality after 24 hr; conditions: NN08, 24 h
Bactrocera dorsalis [43] = experiment: Insecticidal activity against adult Bactrocera dorsalis CH08 assessed as mortality after 24 hr; conditions: CH08, 24 h
Bactrocera dorsalis [44] = experiment: Resistance ratio of LC50 for adult Bactrocera dorsalis MM08 to LC50 for adult Bactrocera dorsalis after 24 hr
Bactrocera dorsalis [45] = experiment: Resistance ratio of LC50 for adult Bactrocera dorsalis HY08 to LC50 for adult Bactrocera dorsalis after 24 hr
Bactrocera dorsalis [46] = experiment: Insecticidal activity against adult Bactrocera dorsalis C-R-45 assessed as mortality
Bactrocera dorsalis [47] = experiment: Resistance ratio of LC50 for adult Bactrocera dorsalis CH08 to LC50 for adult Bactrocera dorsalis after 24 hr
Bactrocera dorsalis [48] = experiment: Insecticidal activity against adult Bactrocera dorsalis CS08 assessed as mortality after 24 hr; conditions: CS08, 24 h
Bactrocera dorsalis [49] = experiment: Resistance ratio of LC50 for adult Bactrocera dorsalis CS07 to LC50 for adult Bactrocera dorsalis after 24 hr
Bactrocera dorsalis [50] = experiment: Resistance ratio of LC50 for adult Bactrocera dorsalis HZ08 to LC50 for adult Bactrocera dorsalis after 24 hr
Bactrocera dorsalis [51] = experiment: Resistance ratio of LC50 for adult Bactrocera dorsalis NN08 to LC50 for adult Bactrocera dorsalis after 24 hr
Bactrocera dorsalis [52] = experiment: Resistance ratio of LC50 for adult Bactrocera dorsalis QY07 to LC50 for adult Bactrocera dorsalis after 24 hr
Bactrocera dorsalis [53] = experiment: Insecticidal activity against adult Bactrocera dorsalis FZ07 assessed as mortality after 24 hr; conditions: FZ07, 24 h
Bactrocera dorsalis [54] = experiment: Insecticidal activity against adult Bactrocera dorsalis WX07 assessed as mortality after 24 hr; conditions: WX07, 24 h
Bactrocera dorsalis [55] = experiment: Resistance ratio of LC50 for adult Bactrocera dorsalis HK08 to LC50 for adult Bactrocera dorsalis after 24 hr

CC1(C)[C@H](C=C(Cl)Cl)[C@H]1C(=O)O[C@@H](C#N)c1cccc(Oc2ccccc2)c1 [BETA-CYPERMETHRIN]
LC50 (Bactrocera dorsalis [1]): 12.2 µg/mL (≈ 29.4 µM)
LC50 (Bactrocera dorsalis [2]): 15.1 µg/mL (≈ 36.4 µM)
RatioLC50 (Bactrocera dorsalis [3]): 5.93
RatioLC50 (Bactrocera dorsalis [4]): 329.3
RatioLC50 (Bactrocera dorsalis [5]): 17
LC50 (Bactrocera dorsalis [6]): 64.1 µg/mL (≈ 154 µM)
LC50 (Bactrocera dorsalis [7]): 24.2 µg/mL (≈ 58.1 µM)
RatioLC50 (Bactrocera dorsalis [8]): 8.17
LC50 (Bactrocera dorsalis [9]): 42.5 µg/mL (≈ 102 µM)
LC50 (Bactrocera dorsalis [10]): 34.2 µg/mL (≈ 82.1 µM)
LC50 (Bactrocera dorsalis [11]): 2.74 µg/mL (≈ 6.58 µM)
RatioLC50 (Bactrocera dorsalis [12]): 6.23
RatioLC50 (Bactrocera dorsalis [13]): 25.74
LC50 (Bactrocera dorsalis [14]): 11.4 µg/mL (≈ 27.3 µM)
RatioLC50 (Bactrocera dorsalis [15]): 4.91
LC50 (Bactrocera dorsalis [16]): 32.7 µg/mL (≈ 78.5 µM)
LC50 (Bactrocera dorsalis [17]): 15.5 µg/mL (≈ 37.2 µM)
RatioLC50 (Bactrocera dorsalis [18]): 4.57
RatioLC50 (Bactrocera dorsalis [19]): 3.01
RatioLC50 (Bactrocera dorsalis [20]): 18.6
LC50 (Bactrocera dorsalis [21]): 7.49 µg/mL (≈ 18 µM)
RatioLC50 (Bactrocera dorsalis [22]): 3.19
LC50 (Bactrocera dorsalis [23]): 30.3 µg/mL (≈ 72.8 µM)
LC50 (Bactrocera dorsalis [24]): 7.95 µg/mL (≈ 19.1 µM)
LC50 (Bactrocera dorsalis [25]): 70.7 µg/mL (≈ 170 µM)
RatioLC50 (Bactrocera dorsalis [26]): 44.03
RatioLC50 (Bactrocera dorsalis [27]): 1.1
RatioLC50 (Bactrocera dorsalis [28]): 4.23
RatioLC50 (Bactrocera dorsalis [29]): 9.71
LC90 (Bactrocera dorsalis [30]): 3959.5 µg/mL (≈ 9510 µM)
LC50 (Bactrocera dorsalis [30]; Bactrocera dorsalis, C-R-48): 830 µg/mL (≈ 1990 µM)
LC50 (Bactrocera dorsalis [31]): 42.3 µg/mL (≈ 102 µM)
LC50 (Bactrocera dorsalis [32]): 46.3 µg/mL (≈ 111 µM)
LC50 (Bactrocera dorsalis [33]): 15.1 µg/mL (≈ 36.2 µM)
LC50 (Bactrocera dorsalis [34]): 110 µg/mL (≈ 263 µM)
LC90 (Bactrocera dorsalis [35]): 3.6 µg/mL (≈ 8.65 µM)
LC50 (Bactrocera dorsalis [35]; Bactrocera dorsalis, 24 h): 2.49 µg/mL (≈ 5.98 µM)
RatioLC50 (Bactrocera dorsalis [36]): 5.34
LC50 (Bactrocera dorsalis [37]): 20.4 µg/mL (≈ 48.9 µM)
RatioLC50 (Bactrocera dorsalis [38]): 13.14
RatioLC50 (Bactrocera dorsalis [39]): 333.42
RatioLC50 (Bactrocera dorsalis [40]): 9.59
LC50 (Bactrocera dorsalis [41]): 10.5 µg/mL (≈ 25.3 µM)
LC50 (Bactrocera dorsalis [42]): 12.5 µg/mL (≈ 30 µM)
LC50 (Bactrocera dorsalis [43]): 60.6 µg/mL (≈ 146 µM)
RatioLC50 (Bactrocera dorsalis [44]): 13.72
RatioLC50 (Bactrocera dorsalis [45]): 17.06
LC90 (Bactrocera dorsalis [46]): 7082.07 µg/mL (≈ 17000 µM)
LC50 (Bactrocera dorsalis [46]; Bactrocera dorsalis, C-R-45): 820 µg/mL (≈ 1970 µM)
RatioLC50 (Bactrocera dorsalis [47]): 24.35
LC50 (Bactrocera dorsalis [48]): 14.8 µg/mL (≈ 35.4 µM)
RatioLC50 (Bactrocera dorsalis [49]): 6.06
RatioLC50 (Bactrocera dorsalis [50]): 28.39
RatioLC50 (Bactrocera dorsalis [51]): 5.02
RatioLC50 (Bactrocera dorsalis [52]): 6.08
LC50 (Bactrocera dorsalis [53]): 13.3 µg/mL (≈ 31.9 µM)
LC50 (Bactrocera dorsalis [54]): 23.9 µg/mL (≈ 57.3 µM)
RatioLC50 (Bactrocera dorsalis [55]): 12.17
